The text below walks through data of paper PMC2134300 (The Journal of Cell Biology, 1997).

As usually defined, the IC50 is the concentration that gives 50% inhibition.

Residues, ends and D or L forms follow the SMILES beside them. *: point of attachment. Cbz = O=C(OCc1ccccc1)*; CH2Cl = ClC*; CH2F = FC*

The target of the assay is T1, T. cruzi oligopeptidase B (rPEP, recombinant 120-kD peptidase) (Trypanosoma cruzi, UniProt Q94795).
T1 sequence (Q94795 1-714): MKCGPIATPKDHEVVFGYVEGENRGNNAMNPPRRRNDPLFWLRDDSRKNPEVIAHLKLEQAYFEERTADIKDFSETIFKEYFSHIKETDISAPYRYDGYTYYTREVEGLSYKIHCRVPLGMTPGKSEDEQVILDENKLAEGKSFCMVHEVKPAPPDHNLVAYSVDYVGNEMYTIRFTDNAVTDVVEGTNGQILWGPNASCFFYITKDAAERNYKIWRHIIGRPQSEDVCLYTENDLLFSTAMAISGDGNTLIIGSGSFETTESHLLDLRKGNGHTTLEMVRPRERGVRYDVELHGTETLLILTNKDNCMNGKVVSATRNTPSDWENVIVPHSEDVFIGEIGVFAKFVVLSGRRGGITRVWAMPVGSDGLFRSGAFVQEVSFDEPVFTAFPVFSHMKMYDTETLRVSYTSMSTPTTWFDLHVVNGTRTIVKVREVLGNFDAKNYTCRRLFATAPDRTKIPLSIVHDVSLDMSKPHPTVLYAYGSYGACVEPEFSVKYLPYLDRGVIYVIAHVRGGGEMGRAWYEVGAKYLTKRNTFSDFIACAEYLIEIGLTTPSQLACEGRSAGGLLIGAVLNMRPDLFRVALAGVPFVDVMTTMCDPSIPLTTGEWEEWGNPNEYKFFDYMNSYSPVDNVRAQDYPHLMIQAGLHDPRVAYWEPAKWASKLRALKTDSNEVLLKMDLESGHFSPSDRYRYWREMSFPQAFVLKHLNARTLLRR
Nature of the assay: fluorimetric inhibition of Z-Phe-Arg-AMC hydrolysis. It counts as biochemical.
Take `Cc1ccc(S(=O)(=O)N[C@@H](CCCCN)C(=O)CCl)cc1` [N-α-p-tosyl-l-lysine-chloromethyl ketone]: the IC50 was found to be 600 nM. The result for `N=C(N)NCCC[C@H](NC(=O)[C@H](Cc1ccccc1)NC(=O)OCc1ccccc1)C(=O)CF` [Z-Phe-Arg-fluoromethylketone] (Cbz-Phe-Arg-CH2F) reads 250 nM; that for `CC(=O)N[C@@H](CCCNC(=N)N)C(=O)N[C@@H](CCCNC(=N)N)C(=O)CCl` [acetylArg-Arg-chloromethylketone] (Ac-Arg-Arg-CH2Cl), 200 nM; that for `O=C(O)c1cc[c]([Hg][Cl])cc1` [p-chloromercuribenzoic acid], 330 nM.
